We go through 19 molecules from PMC5463734, “Structure-guided optimization of quinoline inhibitors of Plasmodium N-myristoyltransferase” (MedChemComm, 2016).

Where “and” joins values, the source holds several entries; their conditions need not be identical. Identical values can stand only once. Like-named read-outs stand apart in the source and are kept apart here.

The target in data set [1] is T1, recombinant P. vivax NMT (PvNMT) (Plasmodium vivax, UniProt A5K1A2).
T1 sequence (A5K1A2 1-410): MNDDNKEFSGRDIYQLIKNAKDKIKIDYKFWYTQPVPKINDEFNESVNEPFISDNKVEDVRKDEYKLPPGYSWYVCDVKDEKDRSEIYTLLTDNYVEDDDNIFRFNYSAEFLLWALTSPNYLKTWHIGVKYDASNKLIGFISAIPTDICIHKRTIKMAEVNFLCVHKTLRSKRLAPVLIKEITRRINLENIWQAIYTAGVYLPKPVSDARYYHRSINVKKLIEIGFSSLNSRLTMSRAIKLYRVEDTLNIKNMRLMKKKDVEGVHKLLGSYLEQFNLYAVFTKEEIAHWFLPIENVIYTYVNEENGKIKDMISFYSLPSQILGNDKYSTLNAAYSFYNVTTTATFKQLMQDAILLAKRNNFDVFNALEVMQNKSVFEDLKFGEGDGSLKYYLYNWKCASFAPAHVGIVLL
Set-up: method as in PMID 22439843. The settings on record: recombinant enzyme; read-out: Ki app PvNMT; cited from earlier work.

A short description of data set [2]: stability in phosphate buffered solutions used for enzymatic assay. It is filed as physicochemical. From the text: It is well known that 2-cyanoethylthioethers can be cleaved in the presence of weak bases such as ammonia through a retro-Michael reaction.[27]
Data set [3] has as its target T2, recombinant P. falciparum NMT (PfNMT) (Plasmodium falciparum, UniProt Q9U419).
T2 sequence (Q9U419 1-410): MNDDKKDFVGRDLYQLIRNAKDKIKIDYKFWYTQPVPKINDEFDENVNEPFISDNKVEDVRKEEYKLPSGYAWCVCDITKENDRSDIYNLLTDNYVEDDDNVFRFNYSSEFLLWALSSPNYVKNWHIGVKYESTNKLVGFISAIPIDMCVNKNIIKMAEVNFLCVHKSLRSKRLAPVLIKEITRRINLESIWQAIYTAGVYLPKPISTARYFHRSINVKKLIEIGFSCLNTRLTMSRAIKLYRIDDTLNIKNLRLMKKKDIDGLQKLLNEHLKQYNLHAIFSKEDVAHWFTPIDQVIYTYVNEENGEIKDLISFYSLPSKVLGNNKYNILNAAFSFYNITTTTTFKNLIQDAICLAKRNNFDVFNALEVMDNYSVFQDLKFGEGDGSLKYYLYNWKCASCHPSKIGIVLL
The data set can be described thus: fluorogenic 96-well plate enzymatic assay for PfNMT activity. It is filed as biochemical. As to conditions: for totally inactive on PfNMT up to: highest concentration without activity; for Ki: recombinant enzyme, mean ± SD from duplicates, Ki app from IC50 by Cheng-Prusoff. The method, then: (§1) The only residue in the inhibitor-binding pocket that differs between these NMTs is Tyr334 (Pv numbering), which is replaced by a phenylalanine in PfNMT.
(§2) Final compounds were tested using a previously described fluorogenic 96-well plate assay for PvNMT,2 PfNMT3 and […]
(§3) nonlinear regression fitting using GraFit 7.0 (Erithacus Software Ltd., U.K.). Apparent inhibition constants, Kiapp, were calculated from experimental IC50 using Cheng-Prussof equation.5

Data set [4] addresses T3, recombinant H. sapiens NMT isoform 1 (HsNMT1) (Homo sapiens, UniProt P30419).
T3 sequence (P30419 1-496): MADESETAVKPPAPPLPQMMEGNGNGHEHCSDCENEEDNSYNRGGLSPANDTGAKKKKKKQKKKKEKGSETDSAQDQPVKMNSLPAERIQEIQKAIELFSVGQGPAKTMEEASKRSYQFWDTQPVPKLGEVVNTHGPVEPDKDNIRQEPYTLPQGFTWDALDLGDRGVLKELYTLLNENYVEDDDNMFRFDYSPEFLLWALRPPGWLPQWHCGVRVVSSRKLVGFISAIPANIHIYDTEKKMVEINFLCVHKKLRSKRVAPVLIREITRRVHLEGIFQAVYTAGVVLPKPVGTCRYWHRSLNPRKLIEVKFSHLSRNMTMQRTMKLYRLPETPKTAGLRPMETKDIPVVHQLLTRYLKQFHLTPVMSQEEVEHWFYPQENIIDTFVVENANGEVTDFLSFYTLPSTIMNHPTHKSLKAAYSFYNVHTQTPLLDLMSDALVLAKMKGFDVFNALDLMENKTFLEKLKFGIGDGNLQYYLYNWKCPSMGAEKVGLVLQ
The data set can be described thus: fluorogenic 96-well plate enzymatic assay for HsNMT1 activity. In kind it is biochemical. As to conditions: for Ki: recombinant enzyme, mean ± SD from duplicates, Ki app from IC50 by Cheng-Prusoff. The method, then:
as §2, §3

Data set [5] concerns the target T1, recombinant P. vivax NMT (PvNMT). The data set can be described thus: biochemical. In kind it is biochemical. The settings on record: for LipE: lipophilic efficiency, LipE = –log(Ki) – clog P, based on PvNMT data; for Ki: recombinant enzyme, mean ± SD from duplicates, Ki app from IC50 by Cheng-Prusoff. On the procedure:
as §1, §2, §3

Data set [6] addresses T4, recombinant H. sapiens NMT isoform 2 (HsNMT2) (Homo sapiens, UniProt O60551).
T4 sequence (O60551 1-498): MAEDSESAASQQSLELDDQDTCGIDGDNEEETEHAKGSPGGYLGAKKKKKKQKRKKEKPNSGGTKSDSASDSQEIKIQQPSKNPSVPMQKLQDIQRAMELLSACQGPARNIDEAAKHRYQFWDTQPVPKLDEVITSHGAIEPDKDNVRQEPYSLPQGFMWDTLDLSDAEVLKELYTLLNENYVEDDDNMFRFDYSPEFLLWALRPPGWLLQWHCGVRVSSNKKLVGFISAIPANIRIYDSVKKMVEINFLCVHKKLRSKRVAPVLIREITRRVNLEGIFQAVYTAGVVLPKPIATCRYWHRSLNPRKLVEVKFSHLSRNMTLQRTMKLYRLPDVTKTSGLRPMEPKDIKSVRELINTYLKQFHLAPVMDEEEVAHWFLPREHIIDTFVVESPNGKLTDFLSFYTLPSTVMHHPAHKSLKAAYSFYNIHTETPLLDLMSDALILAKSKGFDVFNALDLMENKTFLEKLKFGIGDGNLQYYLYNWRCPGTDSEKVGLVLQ
Nature of the data set: fluorogenic 96-well plate enzymatic assay for HsNMT2 activity. In kind it is biochemical. As to conditions: for Ki: recombinant enzyme, mean ± SD from duplicates, Ki app from IC50 by Cheng-Prusoff. On the procedure:
as §2, §3

Data set [7] can be described thus: solubility in assay buffer. As to conditions: could not be evaluated.

As to `CCOC(=O)c1cnc2ccc(OC)cc2c1SCCC#N` [Compound 1, ethyl 4-((2-cyanoethyl)thio)-6-methoxyquinoline-3-carboxylate], the Ki in data set [1] is 4.7 µM and 4.74 µM. For the same molecule, the “stability in phosphate buffered solutions” value in data set [2] is “fully stable”.

Turning to `CCOC(=O)c1cnc2ccc(OCc3ccccc3)cc2c1SCCC#N` [Compound 4], the “totally inactive on PfNMT up to” value in data set [3] is over 100 µM. The Ki in data set [3] (read-out: Ki app PfNMT) is over 10 µM; in data set [4] it was over 10 µM; in data set [5] (read-out: Ki app PvNMT) it was 0.55 ± 0.06 µM. In addition, the “fold improvement in activity compared to the original methoxy compound” value in data set [5] (6-benzyloxy vs 6-methoxy compound 1) amounted to 8 fold. Besides, in data set [5], the LipE stood at 1.90.

Take `CCCSc1c(C(=O)OCC)cnc2ccc(OCc3ccccc3)cc12` [Compound 5]: in data set [3] (n-propyl thioether vs 2-cyanoethyl thioether), the “fold improvement in activity versus PfNMT” value was over 10 fold. The Ki in data set [3] (read-out: Ki app PfNMT) was 1.1 ± 0.08 µM; in data set [4], 3.36 ± 0.37 µM; in data set [5] (read-out: Ki app PvNMT), 2.08 ± 0.14 µM; in data set [6], over 10 µM. Moreover, in data set [5], the LipE was 0.22.

`CCOC(=O)c1cnc2ccc(OCc3ccccc3)cc2c1SC(C)C` [Compound 6]: the values for the Ki in data set [3] (Ki app PfNMT), in data set [4] and in data set [6] were 1.99 ± 0.3 µM, 4.84 ± 0.64 µM and over 10 µM, respectively.

As for `CCOC(=O)c1cnc2ccc(OCc3ccccc3)cc2c1SCC` [Compound 7], the Ki in data set [3] (read-out: Ki app PfNMT) was found to be 0.67 ± 0.04 µM; in data set [4] it was 1.56 ± 0.22 µM; in data set [5] (read-out: Ki app PvNMT), 0.44 ± 0.05 µM; in data set [6], 4.23 ± 0.53 µM. In addition, the LipE in data set [5] is reported as 1.42.

On to `CCOC(=O)c1cnc2ccc(OCc3ccccc3)cc2c1SC` [Compound 8], for which the Ki in data set [3] (read-out: Ki app PfNMT) came to 5.9 ± 0.6 µM; in data set [5] (read-out: Ki app PvNMT) it was 4.14 ± 0.41 µM. For the same molecule, the LipE in data set [5] was 0.69.

`CCOC(=O)c1cnc2ccc(OCc3ccccc3)cc2c1[S+]([O-])CC` (stereo not drawn) [Compound 9]: the Ki was 5.65 ± 1.24 µM in data set [3] (read-out: Ki app PfNMT), 3.6 ± 0.3 µM in data set [4], 1.75 ± 0.12 µM in data set [5] (read-out: Ki app PvNMT) and over 10 µM in data set [6]. Further, the LipE in data set [5] amounted to 2.46.

As for `CCOC(=O)c1cnc2ccc(OCc3ccccc3)cc2c1S(=O)(=O)CC` [Compound 10], the Ki is over 10 µM in data set [3] (read-out: Ki app PfNMT), over 10 µM in data set [4], 1.78 ± 0.47 µM in data set [5] (read-out: Ki app PvNMT) and over 10 µM in data set [6]. Besides, the LipE in data set [5] came to 2.34.

`CCSc1c(CO)cnc2ccc(OCc3ccccc3)cc12` [Compound 11]: the Ki was over 10 µM in data set [3] (read-out: Ki app PfNMT), over 10 µM in data set [4], 4.19 ± 0.55 µM in data set [5] (read-out: Ki app PvNMT) and over 10 µM in data set [6]. The LipE in data set [5] is 1.57.

As to `CCOCc1cnc2ccc(OCc3ccccc3)cc2c1SCC` [Compound 12], the Ki in data set [3] (read-out: Ki app PfNMT) is 2.69 ± 0.51 µM; in data set [4], over 10 µM; in data set [5] (read-out: Ki app PvNMT), 2.92 ± 0.15 µM; in data set [6], over 10 µM. In addition, the LipE in data set [5] was 0.72.

Regarding `CCNC(=O)c1cnc2ccc(OCc3ccccc3)cc2c1SCC` [Compound 13], the Ki is 0.96 ± 0.11 µM in data set [3] (read-out: Ki app PfNMT), 1.05 ± 0.115 µM in data set [4], 0.34 ± 0.05 µM in data set [5] (read-out: Ki app PvNMT) and over 10 µM in data set [6]. The “selectivity versus HsNMT1” value in data set [4] (relative to PvNMT) worked out at 3 fold. Moreover, in data set [5], the LipE amounted to 2.46. Further, in data set [6] (relative to PvNMT), the “selectivity versus HsNMT2” value amounted to 30 fold.

With `CCSc1c(C(=O)N(CC)CC)cnc2ccc(OCc3ccccc3)cc12` [Compound 14], the Ki in data set [3] (read-out: Ki app PfNMT) was determined as 0.94 ± 0.09 µM; in data set [4], 1.02 ± 0.13 µM; in data set [5] (read-out: Ki app PvNMT) it was 0.41 ± 0.06 µM; in data set [6] it was 3.53 ± 0.4 µM. Further, in data set [5], the LipE is recorded as 1.80.

As to `CCSc1c(C(=O)N2CCCC2)cnc2ccc(OCc3ccccc3)cc12` [Compound 15], the Ki in data set [3] (read-out: Ki app PfNMT) is 1.52 ± 0.29 µM; in data set [4], 1.36 ± 0.21 µM; in data set [5] (read-out: Ki app PvNMT) it was 0.96 ± 0.13 µM; in data set [6] it was over 10 µM. Further, in data set [5], the LipE is listed as 1.74.

On to `CCSc1c(C(=O)Nc2ccccc2)cnc2ccc(OCc3ccccc3)cc12` [Compound 16], for which, in data set [7], the solubility result is given as “poorly soluble”.

Turning to `CCSc1c(C(=O)Nc2nccs2)cnc2ccc(OCc3ccccc3)cc12` [Compound 17], the solubility result in data set [7] is given as “poorly soluble”.

For `CCSc1c(C(=O)NCCO)cnc2ccc(OCc3ccccc3)cc12` [Compound 18], the Ki in data set [3] (read-out: Ki app PfNMT) is 8 ± 3.98 µM; in data set [4], over 10 µM; in data set [5] (read-out: Ki app PvNMT), 2.84 ± 0.38 µM; in data set [6] it was over 10 µM. For the same molecule, the LipE in data set [5] is listed as 2.36.

As for `CCSc1c(C(=O)N2CCOCC2)cnc2ccc(OCc3ccccc3)cc12` [Compound 19], the Ki stood at 0.33 ± 0.02 µM in data set [3] (Ki app PfNMT), 0.2 ± 0.02 µM in data set [5] (Ki app PvNMT) and 0.59 ± 0.05 µM in data set [6].

Regarding `CCOC(=O)c1cnc2ccc(OCc3ccc(NCCN)nc3)cc2c1SCC` [Compound 24], the Ki turned out to be 1.25 ± 0.08 µM in data set [3] (read-out: Ki app PfNMT), 0.05 ± 0.01 µM in data set [4], 0.28 ± 0.02 µM in data set [5] (read-out: Ki app PvNMT) and 0.41 ± 0.07 µM in data set [6]. Besides, in data set [5], the LipE was 3.57.

Consider `CCCCc1c(C)nc2ccc(OC)cc2c1SCCC#N` [MRT00057965, 3-butyl-4-((2-cyanoethyl)thio)-6-methoxy-2-methylquinoline], for which, in data set [3], the “totally inactive on PfNMT up to” value is over 100 µM.
